From article PMC9749936, “Synthesis and structure–activity relationship studies of N-terminal analogues of the lipopeptide antibiotics brevicidine and laterocidine” (RSC Medicinal Chemistry, 2022) come the findings set out here.

Bridge positions count the residues as written; N and C are the ends. Square brackets hold non-standard residues; d marks the D form. Peptide text beside a SMILES is read from it. * marks the point of attachment. Octanoyl(7-Me) = CC(C)CCCCCC(=O)*; dOrn = NCCC[C@@H](N)C(=O)O; Orn = NCCC[C@H](N)C(=O)O; Butyryl = CCCC(=O)* A value given as a limit tells only on which side of the number the result lay.

Data set [1] has as its system K. pneumoniae ATCC 13883. In kind it is cell-based, Klebsiella pneumoniae. Conditions: ATCC 13883, 18 h. How it is done: (§1) The minimum inhibitory concentrations (MICs) of brevicidine and laterocidine analogues were determined against a panel of clinically relevant ESKAPE pathogens; Escherichia coli (E. coli), Klebsiella pneumoniae (K. pneumoniae), Acinetobacter baumannii (A. baumannii), Pseudomonas aeruginosa (P. aeuroginosa) and Staphylococcus aureus (S. aureus), which cause the majority of nosocomial infections in the United States.[16] […] In this resistance mechanism, the polymyxin target (lipid A) is modified, reducing binding affinity. For this reason, a strain of colistin-resistant E. coli carrying the mcr-1 gene was also included in the panel. […]
(§2) IV. Antimicrobial testing
(§3) All minimum inhibitory concentrations (MICs) were determined according to Clinical and Standards Laboratory Institute (CLSI) guidelines. Blood agar plates were inoculated with glycerol stocks of E. coli ATCC 25922, K. pneumoniae ATCC 13883, A. baumannii ATCC 17961, P. aeruginosa PAO1 and S. aureus USA300. The inoculated agar plates were then incubated for 16 h at 37 °C . Individually grown colonies were subsequently used to inoculate 5 mL aliquots of TSB that were then incubated at 37 °C with shaking at 220 rpm. E. coli 25922 MCR-1 glycerol stock was used to inoculate 5 mL of TSB supplemented with kanamycin that was then incubated for 16 h at 37 °C with shaking at 220 rpm. The next day the culture was diluted 100 fold in TSB supplemented with kanamycin and incubated at 37 °C with shaking at 220 rpm. In parallel, the lipopeptide antibiotics DMSO stocks to be assessed were serially diluted with MHB in polypropylene 96-well plates (50 µL in each well). Colistin sulfate stocks were dissolved in water before being diluted with MHB. Aliquots of the inoculated TSB were incubated until an OD600 of around 0.5 was reached. The bacterial suspensions were then diluted with MHB (2 x 10^5 CFU mL-1) and added to the microplates containing the test compounds (50 µL to each well). The well-plates were sealed with an adhesive membrane and after 18 h of incubation at 37 °C with shaking at 600 rpm, the wells were visually inspected for bacterial […]
(§4) growth. MIC values reported are based on three technical replicates and defined as the lowest concentration of the compound that prevented visible growth of bacteria. […]
(§5) The values obtained from a read-out at 415 nm were corrected for background (negative control) and transformed to a percentage relative to the positive control.
(§6) VI. HPLC and HRMS analysis of peptides
(§7) Peptide Name Chemical Calcd Mass found Calcd Overall […]

The subject of data set [2] is A. baumannii ATCC 17961. It counts as cell-based, Acinetobacter baumannii. Conditions: ATCC 17961, 18 h. How it is done: as §1, §2, §3, §4, §5, §6, §7
Data set [3] deals with S. aureus USA300. In kind it is cell-based, Staphylococcus aureus. Conditions: USA300, 18 h. How it is done:
as §1, §2, §3, §4, §5, §6, §7

Data set [4] relates to E. coli ATCC 25922. In kind it is cell-based, Escherichia coli. Conditions: ATCC 25922, 18 h. How it is done:
as §1, §2, §3, §4, §5, §6, §7

For data set [5], the system named is P. aeruginosa PAO1. In kind it is cell-based, Pseudomonas aeruginosa. The conditions noted are these: PAO1, 18 h. How it is done:
as §1, §2, §3, §4, §5, §6, §7

Data set [6] relates to E. coli ATCC 25922 MCR-1. It counts as cell-based, Escherichia coli. Conditions: colistin-resistant strain carrying mcr-1; CLSI broth microdilution in MHB, 18 h at 37 °C, visual inspection; three technical replicates. How it is done: as §1
Colisitin sulfate was purchased from Activate Scientific. Kanamycin monosulfate was purchased from MP Biomedicals. E. coli ATCC 25922, S. aureus USA300 (ATCC BAA1717), K. pneumoniae ATCC 13883 and A. baumannii ATCC 17961 belong to the American Type Culture Collection (ATCC). P. aeruginosa PAO1 was kindly provided by L.H.C. Quarles Van Ufford, Utrecht University, Utrecht, The Netherlands. E. coli ATCC 25922 MCR-1 was transfected in house using the pGDP2-MCR1 plasmid kindly provided by Yong-Xin Li, The University of Hong Kong, Hong Kong, China. Sheep blood agar plates (Ref. PB5039A) were purchased from Thermo Scientific. Tryptic soy broth (Ref. 02-200-500) was purchased from Scharlab. Mueller-Hinton broth (Ref. X927.1) was purchased from Carl Roth. Polypropylene 96-wells plates (Ref. 3879) were purchased from Corning. […]
(10.0 mL). 2-Chlorotrityl (CT) chloride resin (2.00 g, 0.81 mmol g-1) and DIPEA (420 µL, 2.40 mmol) were added. […]
A gradient […]
method for C14 - C16 laterocidine was employed, starting at 100% solvent A for 2 min, ramping up to 70 % solvent B over 45 min, ramping up to 100% solvent B over 1 min, remaining there for 6 min before ramping down to 100% solvent A and remaining there for 5 min. High resolution mass spectrometry (HRMS) spectra of brevicidine peptides were recorded by Analytical Services and Environmental Projects (ASEP) at Queen’s University Belfast on a Waters LCT Premier ToF mass spectrometer using the electrospray ionisation (ESI) technique. HRMS spectra of laterocidine peptides were performed on a Thermo Scientific Dionex UltiMate 3000 HPLC system with a Phenomenex Kinetex C18 (2.6 µm, 2.1 x 150 mm) column at 35 °C and equipped with a diode array detector. The following solvent system, at a flow rate of 0.3 mL/min, was used: solvent A = 0.1% formic acid in water, solvent B = 0.1% formic acid in acetonitrile. A gradient method was employed, starting at 95 % solvent A and 5 % solvent B for 1 min, ramping up to 95 % solvent B over 9 min, ramping up to 98 % solvent B over 1 min, remaining there for 1 min before ramping back down to 95 % solvent A over 2 min and remaining there for 1 min.
The system was connected to a Bruker micrOTOF-Q II mass spectrometer (ESI ionization) calibrated internally with sodium […]
as §2
as §3, with “MHB.” for “MHB. Aliquots of the inoculated TSB were incubated until an OD600 of around 0.5 was reached. The bacterial suspensions were then diluted with MHB (2 x 10^5 CFU mL-1) and added to the microplates containing the test compounds (50 µL to each well). The well-plates were sealed with an adhesive membrane and after 18 h of incubation at 37 °C with shaking at 600 rpm, the wells were visually inspected for bacterial”

The subject of data set [7] is Sheep red blood cells. It counts as cell-based. Conditions: red cells of sheep, 1 h, 64 μg mL^−1. How it is done:
Having ascertained the antimicrobial activity of all synthetic peptides against a panel of ESKAPE pathogens, we next assessed their mammalian toxicity with hemolytic assays using sheep red blood cells. The % hemolysis for all peptides at 64 μg mL^−1 was determined, with the hemolysis induced by the surfactant 0.1% Triton X-100 taken as 100%. […] Hemolysis was <1% for all analogues with a C8 chain or shorter, including the strongest antibacterial peptide C8-Lat (22). Hemolytic activity increased up to C14 (>50% for C14-Lat) and then decreased at longer chain lengths, perhaps due to decreased solubility of peptides or aggregation. […]
Phosphate-Buffered Saline (PBS) containing 0.002% Tween20 (buffer) five times. Then, the red blood cells were normalized to obtain a positive control read-out between 2.5 and 3.0 at 415 nm to stay within the linear range with the maximum sensitivity. A serial dilution of the compounds (128 – 1 µg/mL, 75 µL) was prepared in a 96-well polypropylene plate. The outer border of the plate was filled with 75 µL buffer. Each plate contained a positive control (0.1% Triton-X final concentration, 75 µL) and a negative control (buffer, 75 µL) in triplicate. The normalized blood cells (75 µL) were added and the plates were incubated at 37 °C for 1 h while shaking at 500 rpm. A flat-bottom polystyrene plate with 100 µL buffer in each well was prepared. After incubation, the plates were centrifuged (800 g for 5 min at room temperature) and 25 µL of the supernatant was transferred to their respective wells in the flat-bottom plate. The values obtained from a read-out at 415 nm were corrected for background (negative control) and transformed to a percentage relative to the positive control. […]

As to `CC[C@H](C)[C@@H]1NC(=O)[C@@H](NC(=O)[C@H](Cc2c[nH]c3ccccc23)NC(=O)[C@@H](CCCN)NC(=O)CNC(=O)[C@H](CCCN)NC(=O)[C@@H](CCCN)NC(=O)[C@@H](Cc2c[nH]c3ccccc23)NC(=O)[C@@H](Cc2ccc(O)cc2)NC(=O)[C@@H](CO)NC(=O)CCCCCC(C)C)[C@@H](C)OC(=O)CNC(=O)CNC(=O)[C@H](CC(N)=O)NC1=O` [Compound 2, laterocidine] ({Octanoyl(7-Me)}-[dS][dY][dW][dOrn][Orn]G[dOrn]WTINGG; ester 9-C; N-terminus assumed), the “Antimicrobial activity (MIC) K. pneumoniae ATCC 13883” value in data set [1] was in the range of 2 to 4 µg/mL. In addition, the “Antimicrobial activity (MIC) A. baumannii ATCC 17961” value in data set [2] was 2 µg/mL. Besides, in data set [3], the “Antimicrobial activity (MIC) S. aureus USA300” value is >32 µg/mL. Besides, the “Antimicrobial activity (MIC) E. coli ATCC 25922” value in data set [4] is 2 µg/mL. In addition, in data set [5], the “Antimicrobial activity (MIC) P. aeruginosa PAO1” value came out at 4 µg/mL. The “Antimicrobial activity (MIC) E. coli ATCC 25922 MCR-1” value in data set [6] turned out to be 2 µg/mL. The “% Hemolytic activity, sheep red blood cells” value (from here on “% Hemolytic activity”) in data set [7] came to 0.4%.

In the case of `CC[C@H](C)[C@@H]1NC(=O)[C@@H](NC(=O)[C@H](Cc2c[nH]c3ccccc23)NC(=O)[C@@H](CCCN)NC(=O)CNC(=O)[C@H](CCCN)NC(=O)[C@@H](CCCN)NC(=O)[C@@H](Cc2c[nH]c3ccccc23)NC(=O)[C@@H](Cc2ccc(O)cc2)NC(=O)[C@H](N)CC(N)=O)[C@@H](C)OC(=O)[C@H](CO)NC(=O)CNC1=O` [Compound 9], in data set [1], the “Antimicrobial activity (MIC) K. pneumoniae ATCC 13883” value was >32 µg/mL. Moreover, in data set [2], the “Antimicrobial activity (MIC) A. baumannii ATCC 17961” value is >32 µg/mL. Moreover, the “Antimicrobial activity (MIC) S. aureus USA300” value in data set [3] was >32 µg/mL. The “Antimicrobial activity (MIC) E. coli ATCC 25922” value in data set [4] is >32 µg/mL. Besides, the “Antimicrobial activity (MIC) P. aeruginosa PAO1” value in data set [5] was 16 µg/mL. Moreover, in data set [6], the “Antimicrobial activity (MIC) E. coli ATCC 25922 MCR-1” value is >32 µg/mL. Also, the “% Hemolytic activity” value in data set [7] came out at 0.2%.

Consider `CC[C@H](C)[C@@H]1NC(=O)[C@@H](NC(=O)[C@H](Cc2c[nH]c3ccccc23)NC(=O)[C@@H](CCCN)NC(=O)CNC(=O)[C@H](CCCN)NC(=O)[C@@H](CCCN)NC(=O)[C@@H](Cc2c[nH]c3ccccc23)NC(=O)[C@@H](Cc2ccc(O)cc2)NC(=O)[C@@H](CC(N)=O)NC(C)=O)[C@@H](C)OC(=O)[C@H](CO)NC(=O)CNC1=O` [Compound 10] (Ac-[dN][dY][dW][dOrn][Orn]G[dOrn]WTIGS; ester 9-C), for which the “Antimicrobial activity (MIC) K. pneumoniae ATCC 13883” value in data set [1] was >32 µg/mL. The “Antimicrobial activity (MIC) A. baumannii ATCC 17961” value in data set [2] is >32 µg/mL. In addition, in data set [3], the “Antimicrobial activity (MIC) S. aureus USA300” value was >32 µg/mL. Further, the “Antimicrobial activity (MIC) E. coli ATCC 25922” value in data set [4] was >32 µg/mL. For the same molecule, in data set [5], the “Antimicrobial activity (MIC) P. aeruginosa PAO1” value amounted to 8 µg/mL. The “Antimicrobial activity (MIC) E. coli ATCC 25922 MCR-1” value in data set [6] is >32 µg/mL. The “% Hemolytic activity” value in data set [7] was 0.2%.

Regarding `CCCC(=O)N[C@H](CC(N)=O)C(=O)N[C@H](Cc1ccc(O)cc1)C(=O)N[C@H](Cc1c[nH]c2ccccc12)C(=O)N[C@H](CCCN)C(=O)N[C@@H](CCCN)C(=O)NCC(=O)N[C@H](CCCN)C(=O)N[C@@H](Cc1c[nH]c2ccccc12)C(=O)N[C@@H]1C(=O)N[C@@H]([C@@H](C)CC)C(=O)NCC(=O)N[C@@H](CO)C(=O)O[C@@H]1C` [Compound 11] (Butyryl-[dN][dY][dW][dOrn][Orn]G[dOrn]WTIGS; ester 9-C), the “Antimicrobial activity (MIC) K. pneumoniae ATCC 13883” value in data set [1] was found to be 8 µg/mL. Moreover, the “Antimicrobial activity (MIC) A. baumannii ATCC 17961” value in data set [2] stood at 32 µg/mL. In addition, in data set [3], the “Antimicrobial activity (MIC) S. aureus USA300” value is >32 µg/mL. Further, in data set [4], the “Antimicrobial activity (MIC) E. coli ATCC 25922” value is 32 µg/mL. Besides, the “Antimicrobial activity (MIC) P. aeruginosa PAO1” value in data set [5] is 16 µg/mL. The “Antimicrobial activity (MIC) E. coli ATCC 25922 MCR-1” value in data set [6] was determined as 32 µg/mL. Further, in data set [7], the “% Hemolytic activity” value was 0.1%.
